Results published in ChEMBL document CHEMBL5113446, “Design, synthesis and biological evaluation of novel aminopropylcarboxamide derivatives as sigma ligands” (Bioorg Med Chem Lett, 2022).

Columns and labels:
[1] = biological target: Sigma non-opioid intracellular receptor 1 (Homo sapiens, UniProt Q99720); test: Binding affinity to sigma 1 receptor (unknown origin) assessed as inhibition constant by radioligand binding assay
[2] = biological target: Delta-type opioid receptor (Homo sapiens, UniProt P41143); test: Binding affinity to DOR (unknown origin) assessed as inhibition constant by radioligand binding assay
[3] = biological target: Kappa-type opioid receptor (Homo sapiens, UniProt P41145); test: Binding affinity to KOR (unknown origin) assessed as inhibition constant by radioligand binding assay
[4] = biological target: Sigma intracellular receptor 2 (Homo sapiens, UniProt Q5BJF2); test: Binding affinity to sigma 2 receptor (unknown origin) assessed as inhibition constant by radioligand binding assay
[5] = biological target: Mu-type opioid receptor (Homo sapiens, UniProt P35372); test: Binding affinity to MOR (unknown origin) assessed as inhibition constant by radioligand binding assay
[6] = species on record: Homo sapiens; test: Selectivity index, ratio of Ki for sigma 1 receptor (unknown origin) to Ki for sigma 2 receptor (unknown origin)
[7] = tested on: SK-BR-3; test: Cytotoxicity against ER/PR-negative HER2-positive human SK-BR-3 cells harbouring […] assessed as reduction in cell viability at 100 to 200 uM incubated for 48 hrs by resazurin dye based assay relative to control; type: functional; settings: dose 100-200 µM
[8] = tested on: MCF7; test: Cytotoxicity against ER/PR-positive HER2-negative human MCF7 cells harbouring […] assessed as inhibition of cell growth incubated for 48 hrs by resazurin dye based assay; type: functional; settings: MCF7, 48 h
[9] = tested on: SK-BR-3; test: Cytotoxicity against ER/PR-negative HER2-positive human SK-BR-3 cells harbouring […] assessed as inhibition of cell growth incubated for 48 hrs by resazurin dye based assay; type: functional; settings: SK-BR-3, 48 h
[10] = tested on: MCF7; test: Cytotoxicity against ER/PR-positive HER2-negative human MCF7 cells harbouring […] assessed as reduction in cell viability at 100 uM incubated for 48 hrs by resazurin dye based assay relative to control; type: functional

Chain of Sigma non-opioid intracellular receptor 1 (Q99720 whole entry): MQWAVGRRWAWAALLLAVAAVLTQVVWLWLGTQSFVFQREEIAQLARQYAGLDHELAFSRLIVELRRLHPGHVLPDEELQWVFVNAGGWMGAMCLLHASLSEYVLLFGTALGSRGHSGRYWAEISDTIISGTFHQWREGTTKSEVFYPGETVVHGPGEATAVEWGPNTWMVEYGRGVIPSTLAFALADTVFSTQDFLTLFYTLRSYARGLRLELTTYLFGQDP
Chain of Mu-type opioid receptor (P35372 whole entry): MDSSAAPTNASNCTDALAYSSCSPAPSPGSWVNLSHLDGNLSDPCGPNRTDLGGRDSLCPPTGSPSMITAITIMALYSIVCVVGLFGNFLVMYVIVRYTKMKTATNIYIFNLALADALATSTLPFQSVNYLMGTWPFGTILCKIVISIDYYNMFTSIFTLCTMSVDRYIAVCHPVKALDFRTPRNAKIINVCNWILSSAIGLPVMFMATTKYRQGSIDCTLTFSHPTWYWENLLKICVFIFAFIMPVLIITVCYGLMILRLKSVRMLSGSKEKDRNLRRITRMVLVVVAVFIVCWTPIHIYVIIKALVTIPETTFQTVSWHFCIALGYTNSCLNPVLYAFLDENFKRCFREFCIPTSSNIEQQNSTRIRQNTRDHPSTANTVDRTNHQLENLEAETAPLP
Chain of Delta-type opioid receptor (P41143 whole entry): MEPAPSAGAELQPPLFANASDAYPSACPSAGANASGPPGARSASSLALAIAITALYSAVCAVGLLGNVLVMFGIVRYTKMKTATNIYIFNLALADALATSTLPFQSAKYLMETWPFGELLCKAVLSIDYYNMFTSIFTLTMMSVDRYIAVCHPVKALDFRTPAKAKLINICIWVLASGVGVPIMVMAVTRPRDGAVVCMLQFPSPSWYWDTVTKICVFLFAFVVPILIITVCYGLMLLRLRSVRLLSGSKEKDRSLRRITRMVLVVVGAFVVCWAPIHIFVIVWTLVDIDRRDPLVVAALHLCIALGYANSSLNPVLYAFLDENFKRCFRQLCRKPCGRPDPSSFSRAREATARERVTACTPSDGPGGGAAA
Chain of Sigma intracellular receptor 2 (Q5BJF2 whole entry): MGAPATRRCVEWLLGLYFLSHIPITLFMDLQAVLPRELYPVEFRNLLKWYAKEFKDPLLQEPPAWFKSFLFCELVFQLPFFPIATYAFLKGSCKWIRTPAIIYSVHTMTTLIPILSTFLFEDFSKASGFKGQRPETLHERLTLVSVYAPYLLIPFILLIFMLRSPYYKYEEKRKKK
Chain of Kappa-type opioid receptor (P41145 whole entry): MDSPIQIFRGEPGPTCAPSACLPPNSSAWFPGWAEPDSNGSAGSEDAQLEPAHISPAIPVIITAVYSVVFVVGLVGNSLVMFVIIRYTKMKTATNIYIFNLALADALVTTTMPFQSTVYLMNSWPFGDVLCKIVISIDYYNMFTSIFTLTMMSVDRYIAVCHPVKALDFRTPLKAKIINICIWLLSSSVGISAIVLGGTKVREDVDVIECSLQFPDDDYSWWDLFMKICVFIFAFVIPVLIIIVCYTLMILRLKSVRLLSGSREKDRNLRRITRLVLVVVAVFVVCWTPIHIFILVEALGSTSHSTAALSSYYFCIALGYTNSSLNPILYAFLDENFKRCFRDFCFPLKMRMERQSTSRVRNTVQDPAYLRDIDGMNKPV

Structure (SMILES)	Ki [1] [nM]	Ki [2] [µM]	Ki [3] [µM]	Ki [4] [nM]	Ki [5] [nM]	Ratio Ki [6]	Activity [7]	IC50 [8] [µM]	IC50 [9] [µM]	Activity [10]	IC50 ([8]; read-out: IC50) [µM]
COc1ccc(CN(C)CCCNC(=O)c2ccco2)cc1OC	> 10000	> 10	4.17	> 5000	> 10000	–	–	–	–	–	–
COc1ccc(CN(C)CCCNC(=O)c2ccc3ccccc3c2)cc1OC	1440	> 10	> 10	126	1220	11	–	–	–	–	–
O=C(CCCN1CCC(O)(c2ccc(Cl)cc2)CC1)c1ccc(F)cc1 [HALOPERIDOL]	–	–	–	–	–	–	48%	68	131	79%	–
CN(CCCNC(=O)c1cc2ccccc2o1)Cc1ccccc1	12	> 10	2.39	9.9	1770	1.2	50%	–	52	<=50%	86
COc1ccc(CN(C)CCCNC(=O)c2cc3ccccc3o2)cc1OC	375	> 10	> 10	46	2900	8.1	<=60%	–	35	<=60%	36
CN(CCCNC(=O)c1ccco1)Cc1ccccc1	> 10000	> 10	> 10	1070	> 10000	–	–	–	–	–	–
CN(CCCNC(=O)c1ccc2ccccc2c1)Cc1ccccc1	104	> 10	> 10	106	3430	1	–	–	–	–	–
COc1ccc(CN(C)CCCNC(=O)c2ccc3ccccc3n2)cc1OC	573	> 10	> 10	16	56	35	<=60%	–	88	<=50%	251
CN(CCCNC(=O)c1ccc2ccccc2n1)Cc1ccccc1	16	> 10	3.58	21	2760	0.7	50%	–	169	30%	1640
Fc1ccc(-n2cc(CCCCN3CCC4(CC3)OCc3ccccc34)c3ccccc32)cc1 [SIRAMESINE]	–	–	–	–	–	–	98%	–	14	96%	13
